According to ChEMBL document CHEMBL3991601, “The target landscape of clinical kinase drugs” (Science, 2017):
The source made the active and inactive calls.

What was measured:
DNA topoisomerase 2-beta = DNA topoisomerase 2-beta (Homo sapiens, UniProt Q02880)
Actin-related protein 2 = Actin-related protein 2 (Homo sapiens, UniProt P61160)
[1] = target: T1, Non-receptor tyrosine-protein kinase TNK1 (Homo sapiens, UniProt Q13470)
T1 sequence (Q13470 whole entry): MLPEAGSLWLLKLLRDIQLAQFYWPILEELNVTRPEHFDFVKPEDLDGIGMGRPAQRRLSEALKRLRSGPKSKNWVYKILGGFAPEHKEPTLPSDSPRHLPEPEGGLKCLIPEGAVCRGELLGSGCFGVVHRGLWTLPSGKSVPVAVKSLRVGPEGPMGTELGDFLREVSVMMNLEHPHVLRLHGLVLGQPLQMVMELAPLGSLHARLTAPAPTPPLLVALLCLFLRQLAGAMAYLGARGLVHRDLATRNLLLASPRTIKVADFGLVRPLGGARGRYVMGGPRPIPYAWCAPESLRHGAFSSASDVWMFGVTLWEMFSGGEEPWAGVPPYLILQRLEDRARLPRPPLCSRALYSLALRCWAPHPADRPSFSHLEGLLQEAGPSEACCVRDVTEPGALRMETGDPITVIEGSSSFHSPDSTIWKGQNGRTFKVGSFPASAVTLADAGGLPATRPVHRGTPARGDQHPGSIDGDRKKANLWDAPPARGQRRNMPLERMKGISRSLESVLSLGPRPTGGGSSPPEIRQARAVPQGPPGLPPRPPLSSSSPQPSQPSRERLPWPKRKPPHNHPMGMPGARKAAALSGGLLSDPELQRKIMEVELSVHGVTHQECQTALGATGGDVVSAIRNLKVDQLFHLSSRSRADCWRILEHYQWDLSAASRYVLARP

[2] = target: T2, Serine/threonine-protein kinase ULK3 (Homo sapiens, UniProt Q6PHR2)
T2 sequence (Q6PHR2 whole entry): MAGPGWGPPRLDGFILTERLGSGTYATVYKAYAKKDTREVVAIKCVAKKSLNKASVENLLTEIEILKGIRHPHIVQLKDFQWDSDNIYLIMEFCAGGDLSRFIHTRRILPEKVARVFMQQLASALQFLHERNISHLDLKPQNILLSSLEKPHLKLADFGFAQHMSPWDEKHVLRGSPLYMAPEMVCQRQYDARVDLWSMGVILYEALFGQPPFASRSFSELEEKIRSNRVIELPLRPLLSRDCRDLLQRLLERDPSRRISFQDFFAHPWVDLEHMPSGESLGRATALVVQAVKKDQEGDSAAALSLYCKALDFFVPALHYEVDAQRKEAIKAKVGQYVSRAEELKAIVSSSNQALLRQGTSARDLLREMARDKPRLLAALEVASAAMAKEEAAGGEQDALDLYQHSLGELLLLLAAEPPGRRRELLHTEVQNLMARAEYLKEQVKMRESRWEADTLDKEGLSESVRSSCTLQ

[3] = target: T3, Serine/threonine-protein kinase NLK (Homo sapiens, UniProt Q9UBE8)
T3 sequence (Q9UBE8 whole entry): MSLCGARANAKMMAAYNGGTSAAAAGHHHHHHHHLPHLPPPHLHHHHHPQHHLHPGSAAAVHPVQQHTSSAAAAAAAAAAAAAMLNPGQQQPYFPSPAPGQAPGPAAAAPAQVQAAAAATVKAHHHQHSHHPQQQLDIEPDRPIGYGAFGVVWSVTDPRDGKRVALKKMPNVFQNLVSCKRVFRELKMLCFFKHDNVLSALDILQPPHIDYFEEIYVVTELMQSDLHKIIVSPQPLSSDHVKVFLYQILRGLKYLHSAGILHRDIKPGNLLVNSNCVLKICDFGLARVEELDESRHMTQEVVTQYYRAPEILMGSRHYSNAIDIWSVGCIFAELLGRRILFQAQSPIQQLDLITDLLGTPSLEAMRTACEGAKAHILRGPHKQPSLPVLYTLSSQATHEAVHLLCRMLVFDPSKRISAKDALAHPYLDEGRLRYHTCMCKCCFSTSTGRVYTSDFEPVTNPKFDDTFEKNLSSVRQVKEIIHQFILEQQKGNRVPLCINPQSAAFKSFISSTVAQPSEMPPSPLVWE
Further: in the data inactive means no Kd found up to 30 µM.

Sequence of DNA topoisomerase 2-beta (Q02880 whole entry): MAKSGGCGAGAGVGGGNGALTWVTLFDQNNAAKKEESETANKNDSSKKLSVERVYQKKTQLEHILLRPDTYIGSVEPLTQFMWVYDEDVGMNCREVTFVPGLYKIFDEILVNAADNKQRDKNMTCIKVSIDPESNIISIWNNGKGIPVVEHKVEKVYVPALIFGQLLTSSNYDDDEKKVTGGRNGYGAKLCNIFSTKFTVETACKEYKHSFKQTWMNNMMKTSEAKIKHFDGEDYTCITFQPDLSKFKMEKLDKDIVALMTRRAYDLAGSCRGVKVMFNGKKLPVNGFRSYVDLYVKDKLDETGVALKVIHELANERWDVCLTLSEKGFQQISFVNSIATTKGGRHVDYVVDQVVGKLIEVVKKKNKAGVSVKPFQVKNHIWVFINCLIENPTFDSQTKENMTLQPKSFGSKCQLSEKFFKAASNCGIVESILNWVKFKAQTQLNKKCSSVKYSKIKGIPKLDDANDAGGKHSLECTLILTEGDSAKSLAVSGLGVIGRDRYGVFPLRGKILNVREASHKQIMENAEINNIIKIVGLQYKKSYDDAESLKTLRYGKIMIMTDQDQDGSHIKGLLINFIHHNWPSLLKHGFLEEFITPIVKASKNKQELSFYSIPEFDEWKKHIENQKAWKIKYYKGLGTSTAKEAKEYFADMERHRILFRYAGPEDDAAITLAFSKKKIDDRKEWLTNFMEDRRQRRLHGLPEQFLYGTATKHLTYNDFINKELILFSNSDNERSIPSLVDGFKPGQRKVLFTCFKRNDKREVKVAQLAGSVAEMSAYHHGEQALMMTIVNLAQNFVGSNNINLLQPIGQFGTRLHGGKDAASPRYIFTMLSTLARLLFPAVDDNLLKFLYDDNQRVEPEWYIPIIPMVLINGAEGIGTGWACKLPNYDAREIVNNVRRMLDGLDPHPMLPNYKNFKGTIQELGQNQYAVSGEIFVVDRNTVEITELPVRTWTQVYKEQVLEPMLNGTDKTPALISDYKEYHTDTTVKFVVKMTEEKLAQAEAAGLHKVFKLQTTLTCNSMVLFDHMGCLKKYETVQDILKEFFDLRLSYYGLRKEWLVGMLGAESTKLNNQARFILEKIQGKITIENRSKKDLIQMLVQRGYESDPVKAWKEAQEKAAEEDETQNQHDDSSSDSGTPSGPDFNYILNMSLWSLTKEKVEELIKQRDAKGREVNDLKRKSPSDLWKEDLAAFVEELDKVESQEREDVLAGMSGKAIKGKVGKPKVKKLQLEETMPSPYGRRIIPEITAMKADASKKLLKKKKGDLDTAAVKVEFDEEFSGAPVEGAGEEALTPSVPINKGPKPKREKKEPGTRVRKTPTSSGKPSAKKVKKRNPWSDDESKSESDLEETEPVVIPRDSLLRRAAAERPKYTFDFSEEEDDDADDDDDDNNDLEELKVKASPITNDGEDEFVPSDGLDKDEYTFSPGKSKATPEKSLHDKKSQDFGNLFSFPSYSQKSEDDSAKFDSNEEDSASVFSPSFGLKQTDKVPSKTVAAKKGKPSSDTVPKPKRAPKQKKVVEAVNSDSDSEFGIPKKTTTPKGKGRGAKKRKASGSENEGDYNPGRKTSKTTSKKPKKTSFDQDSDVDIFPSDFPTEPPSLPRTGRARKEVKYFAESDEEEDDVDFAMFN

Compound | Kd (DNA topoisomerase 2-beta) | Kd (Actin-related protein 2) | Kd [1] | Kd [2] | Kd [3]
C#Cc1cccc(Nc2ncnc3cc(OC)c(OCCCCCCC(=O)NO)cc23)c1 [CUDC-101] | > 30 µM (inactive) | > 30 µM (inactive) | > 30 µM (inactive) | > 30 µM (inactive) | > 30 µM (inactive)
NC1(c2ccc(-c3nc4ccn5c(=O)[nH]nc5c4cc3-c3ccccc3)cc2)CCC1 [MK-2206] | > 30 µM (inactive) | > 30 µM (inactive) | > 30 µM (inactive) | > 30 µM (inactive) | > 30 µM (inactive)
Cc1nc2cc(-c3nn(C(C)C)c4ncnc(N)c34)ccc2o1 | > 30 µM (inactive) | > 30 µM (inactive) | > 30 µM (inactive) | > 30 µM (inactive) | 0.449 µM (active)
O=C1NC(=O)[C@@H](c2cn3c4c(cccc24)CCC3)[C@@H]1c1c[nH]c2ccccc12 [TIVANTINIB] | > 30 µM (inactive) | > 30 µM (inactive) | > 30 µM (inactive) | > 30 µM (inactive) | > 30 µM (inactive)
CO[C@H]1C[C@@H]2CC[C@@H](C)[C@@](O)(O2)C(=O)C(=O)N2CCCC[C@H]2C(=O)O[C@H]([C@H](C)C[C@@H]2CC[C@@H](OP(C)(C)=O)[C@H](OC)C2)CC(=O)[C@H](C)/C=C(\C)[C@@H](O)[C@@H](OC)C(=O)[C@H](C)C[C@H](C)/C=C/C=C/C=C/1C [RIDAFOROLIMUS] | > 30 µM (inactive) | > 30 µM (inactive) | > 30 µM (inactive) | > 30 µM (inactive) | > 30 µM (inactive)
COCC(=O)NC/C=C/c1ccc2ncnc(Nc3ccc(Oc4ccc(C)nc4)c(C)c3)c2c1 [CP-724714] | > 30 µM (inactive) | > 30 µM (inactive) | > 30 µM (inactive) | > 30 µM (inactive) | > 30 µM (inactive)
CC(=O)NCC(=O)N1[C@@H]2CC[C@H]1c1ccc(Nc3ncc(C(F)(F)F)c(NC4CCC4)n3)cc12 [PF-03814735] | > 30 µM (inactive) | > 30 µM (inactive) | 0.369 µM (active) | 0.019 µM (active) | > 30 µM (inactive)
CCCCCCCCCCCCCCCCCCOP(=O)([O-])OC1CC[N+](C)(C)CC1 [PERIFOSINE] | > 30 µM (inactive) | > 30 µM (inactive) | > 30 µM (inactive) | > 30 µM (inactive) | > 30 µM (inactive)
COc1ncc(-c2ccc3nccc(-c4ccnnc4)c3c2)cc1NS(=O)(=O)c1ccc(F)cc1F [OMIPALISIB] | > 30 µM (inactive) | > 30 µM (inactive) | > 30 µM (inactive) | > 30 µM (inactive) | > 30 µM (inactive)
C[C@H]1CNCCCN1S(=O)(=O)c1cccc2cncc(F)c12 | > 30 µM (inactive) | > 30 µM (inactive) | > 30 µM (inactive) | > 30 µM (inactive) | > 30 µM (inactive)
Cc1cnc(NC(=O)Nc2cc(Br)c(C)cc2OC[C@@H]2CNCCO2)cn1 [RABUSERTIB] | > 30 µM (inactive) | > 30 µM (inactive) | > 30 µM (inactive) | > 30 µM (inactive) | > 30 µM (inactive)
Cc1cccc(-c2nn3c(c2-c2ccnc4ccc(C(N)=O)cc24)CCC3)n1 [GALUNISERTIB] | > 30 µM (inactive) | > 30 µM (inactive) | > 30 µM (inactive) | > 30 µM (inactive) | > 30 µM (inactive)
O=C(Nc1nc2cccc(-c3ccc(CN4CCS(=O)(=O)CC4)cc3)n2n1)C1CC1 [FILGOTINIB] | > 30 µM (inactive) | > 30 µM (inactive) | > 30 µM (inactive) | > 30 µM (inactive) | > 30 µM (inactive)
Cc1nc(Nc2n[nH]c3c2CN(C(=O)N[C@H](CN(C)C)c2ccccc2)C3(C)C)c2sccc2n1 [PF-03758309] | > 30 µM (inactive) | > 30 µM (inactive) | > 30 µM (inactive) | 0.626 µM (active) | > 30 µM (inactive)
COc1cc([C@@H]2c3cc4c(cc3[C@H](O)[C@H]3COC(=O)[C@@H]23)OCO4)cc(OC)c1OC [AXL-1717] | > 30 µM (inactive) | > 30 µM (inactive) | > 30 µM (inactive) | > 30 µM (inactive) | > 30 µM (inactive)
Cc1csc(-c2nnc(Nc3ccc(Oc4ncccc4-c4ccnc(N)n4)cc3)c3ccccc23)c1 [AMG-900] | 2.6 µM | > 30 µM (inactive) | > 30 µM (inactive) | > 30 µM (inactive) | > 30 µM (inactive)
COCc1c(-c2ccc(NC(=O)Nc3cc(C(F)(F)F)ccc3F)c(F)c2)c2c(N)ncnn2c1CN1CCOCC1 | > 30 µM (inactive) | > 30 µM (inactive) | 1.26 µM (active) | > 30 µM (inactive) | > 30 µM (inactive)
Nc1ncnc2c1c(-c1cccc(OCc3ccccc3)c1)cn2[C@H]1C[C@@H](CN2CCC2)C1 [AEW-541] | > 30 µM (inactive) | > 30 µM (inactive) | > 30 µM (inactive) | > 30 µM (inactive) | > 30 µM (inactive)
CN1CCN(CCOc2cc(OC3CCOCC3)c3c(Nc4c(Cl)ccc5c4OCO5)ncnc3c2)CC1 [SARACATINIB] | > 30 µM (inactive) | > 30 µM (inactive) | > 30 µM (inactive) | > 30 µM (inactive) | > 30 µM (inactive)
CNC(=O)c1cc(Oc2ccc(NC(=O)Nc3cc(C(C)(C)C)nn3-c3ccc4ncccc4c3)c(F)c2)ccn1 [REBASTINIB] | > 30 µM (inactive) | > 30 µM (inactive) | 0.055 µM (active) | > 30 µM (inactive) | > 30 µM (inactive)
C=CC(=O)N1CCC[C@H](n2c(=O)n(-c3ccc(Oc4ccccc4)cc3)c3c(N)ncnc32)C1 | > 30 µM (inactive) | > 30 µM (inactive) | > 30 µM (inactive) | > 30 µM (inactive) | > 30 µM (inactive)
COc1ccc(S(=O)(=O)N(C(C)=O)c2ccccc2/C=C/c2cc[n+]([O-])cc2)cc1 [HMN-214] | > 30 µM (inactive) | > 30 µM (inactive) | > 30 µM (inactive) | > 30 µM (inactive) | > 30 µM (inactive)
COc1cc2c(Nc3ccc(Cl)c(Cl)c3F)ncnc2cc1OC[C@@H]1C[C@@H]2CN(C)C[C@@H]2C1 [TESEVATINIB] | > 30 µM (inactive) | > 30 µM (inactive) | > 30 µM (inactive) | > 30 µM (inactive) | > 30 µM (inactive)
CO[C@H]1C[C@@H]2CC[C@@H](C)[C@@](O)(O2)C(=O)C(=O)N2CCCC[C@H]2C(=O)O[C@H]([C@H](C)C[C@@H]2CC[C@@H](OC(=O)C(C)(CO)CO)[C@H](OC)C2)CC(=O)[C@H](C)/C=C(\C)[C@@H](O)[C@@H](OC)C(=O)[C@H](C)C[C@H](C)/C=C/C=C/C=C/1C [TEMSIROLIMUS] | > 30 µM (inactive) | > 30 µM (inactive) | > 30 µM (inactive) | > 30 µM (inactive) | > 30 µM (inactive)
Cn1cnc2c(F)c(Nc3ccc(Br)cc3F)c(C(=O)NOCCO)cc21 [BINIMETINIB] | > 30 µM (inactive) | > 30 µM (inactive) | > 30 µM (inactive) | > 30 µM (inactive) | > 30 µM (inactive)
CCOc1cc2ncc(C#N)c(Nc3ccc(F)c(Cl)c3)c2cc1NC(=O)/C=C/CN(C)C [PELITINIB] | > 30 µM (inactive) | > 30 µM (inactive) | > 30 µM (inactive) | > 30 µM (inactive) | > 30 µM (inactive)
COc1c(OCCCN2CCOCC2)ccc2c1N=C(NC(=O)c1cnc(N)nc1)N1CCN=C21 [COPANLISIB] | > 30 µM (inactive) | > 30 µM (inactive) | > 30 µM (inactive) | > 30 µM (inactive) | > 30 µM (inactive)
